Assay results as given in BindingDB's records for doi:10.1016/S0960-894X(01)80892-1 (1993).

Test: Binding affinity against sigma receptor in guinea pig brain preparation was estimated using [3H]3-PPP as radioligand
With `C1=C(c2c[nH]c3ccccc23)CCN(CCCCc2ccncc2)C1` [3-[1-(4-Pyridin-4-yl-butyl)-1,2,3,6-tetrahydro-pyridin-4-yl]-1H-indole] the Ki was 10.3 nM.
For `C1=C(c2ccc3ccccc3c2)CCN(CCCCc2ccncc2)C1` [4-[4-(4-Naphthalen-2-yl-3,6-dihydro-2H-pyridin-1-yl)-butyl]-pyridine], the Ki was 3.07 nM.
`C1=C(c2ccccn2)CCN(CCCCc2ccncc2)C1` [1'-(4-Pyridin-4-yl-butyl)-1',2',3',6'-tetrahydro-[2,4']bipyridinyl] gave a Ki of 44.5 nM.
Work on `COc1ccc(C2=CCN(CCCCc3ccncc3)CC2)cc1` [4-{4-[4-(4-Methoxy-phenyl)-3,6-dihydro-2H-pyridin-1-yl]-butyl}-pyridine] yielded a Ki of 0.45 nM.
Work on `C1=C(c2cccs2)CCN(CCCCc2ccncc2)C1` [4-[4-(4-Thiophen-2-yl-3,6-dihydro-2H-pyridin-1-yl)-butyl]-pyridine] yielded a Ki of 2.13 nM.
For `C1=C(c2ccccc2)CCN(CCCCc2ccncc2)C1` [4-[4-(4-Phenyl-3,6-dihydro-2H-pyridin-1-yl)-butyl]-pyridine], the Ki was 2.72 nM.
For `Fc1ccc(C2=CCN(CCCCc3ccncc3)CC2)cc1` [4-{4-[4-(4-Fluoro-phenyl)-3,6-dihydro-2H-pyridin-1-yl]-butyl}-pyridine], the Ki was 1.75 nM.
`Clc1ccc(C2=CCN(CCCCc3ccncc3)CC2)cc1` [4-{4-[4-(4-Chloro-phenyl)-3,6-dihydro-2H-pyridin-1-yl]-butyl}-pyridine] showed a Ki of 1.04 nM.
`Cc1ccc(C2=CCN(CCCCc3ccncc3)CC2)cc1` [4-[4-(4-p-Tolyl-3,6-dihydro-2H-pyridin-1-yl)-butyl]-pyridine] showed a Ki of 5.86 nM.
